The nature of the series: solvent given as SMILES.

Consider `CN(C)c1ccc(C2=Cc3ccc4ccccc4[n+]3[B-](F)(F)O2)cc1`, for which the absorption maximum came to 472 nm (in C1CCOC1); 472 nm (in C1COCCO1); 473 nm (in CC1CCCCC1); 468 nm (in CC#N); 468 nm (in CCOC(C)=O); 467 nm (in CCOCC). Also, the absorption maximum was 474 nm (in CN(C)C=O), 468 nm (in CO), 468 nm (in COC(C)=O) and 477 nm (in ClC(Cl)Cl).

In the case of `COc1c2ccccc2c(OC)c2c1c1ccccc1n2C`, the absorption maximum by setting is: (in C1CCCCC1) 405 nm; (in CC#N) 406 nm; (in CO) 405 nm; (in ClCCl) 409 nm.

In turn, `Cc1ccc2nc(-c3cc(-c4nc5ccc(C)cc5[nH]4)cc(-c4nc5ccc(C)cc5[nH]4)c3)[nH]c2c1` showed an absorption maximum (in CS(C)=O) of 322.8 nm.

Regarding `F[B-]1(F)OC(c2ccc(C(F)(F)F)cc2)=Cc2c3ccccc3c3ccccc3[n+]21`, where the note is “in ClC(Cl)Cl”, the absorption maximum turned out to be 430 nm.

Where the note is “in C1CCOC1”, `O=C(c1ccc(N2c3ccccc3Sc3ccccc32)cc1)c1ccc2sc3ccccc3c2c1` yielded an absorption maximum of 330 nm.

Where the note is “in ClC(Cl)Cl”, `Fc1cccc(C2=Cc3ccc4ccccc4[n+]3[B-](F)(F)O2)c1` yielded an absorption maximum of 425 nm.

For `CC1(C)CC(=O)c2ccccc2N1`, for the setting “in CCO”, the absorption maximum was determined as 383 nm.

In the case of `CC(C)(C)c1ccc(-c2sc3c(-c4ccc(C(C)(C)C)cc4)c4n(c3c2-c2ccc(C(C)(C)C)cc2)[B-](F)(F)[N+]2=Cc3c(-c5ccc(C(C)(C)C)cc5)c5sc(-c6ccc(C(C)(C)C)cc6)c(-c6ccc(C(C)(C)C)cc6)c5n3[B-](F)(F)[N+]2=C4)cc1`, the absorption maximum came to 574 nm (in CC#N); 591 nm (in CCCCCC); 584 nm (in CN(C)C=O); 596 nm (in Cc1ccccc1); 591 nm (in ClCCl).

On to `COc1ccc(-c2cc3c(s2)=CC2=C(C(F)(F)F)c4cc5sc(-c6ccc(OC)cc6)cc5n4[B-](F)(F)[N+]=32)cc1`, for which the absorption maximum is 730 nm (in C1CCOC1) and 731 nm (in ClC(Cl)Cl).

Take `O=C1c2ccccc2NC(c2ccccc2)N1Cc1ccccc1` (stereo unspecified): the absorption maximum by setting is: (in CC#N) 337 nm; (in CCCCCCCCCCCCCCCC) 325 nm; (in CO) 345 nm; (in ClC(Cl)Cl) 336 nm; (in c1ccccc1) 334 nm.

With `C(S/C=C/c1ccc(/C=C/SC=C2CCCCC2)cc1)=C1CCCCC1`, the absorption maximum (in ClCCl) is 350 nm.

For the compound `O=[N+]([O-])c1ccc(NCCNCc2c3ccccc3cc3ccccc23)c([N+](=O)[O-])c1`, the absorption maximum by setting is: (in C1CCCCC1) 368 nm; (in C1CCOC1) 349 nm; (in CC#N) 364 nm; (in CC(C)=O) 364 nm; (in CCO) 364 nm; (in CN(C)C=O) 363 nm. Further, the absorption maximum by setting is: (in CO) 348 nm; (in ClC(Cl)Cl) 350 nm.

The compound `COc1ccc(C#Cc2ncc(-c3ccccc3)o2)cc1OC` came in with an absorption maximum (in ClCCl) of 330 nm.

`BrC1=CN2C[n+]3cc(Br)cc(Br)c3N=C2C(Br)=C1`: the absorption maximum (in CS(C)=O) was 449 nm.

In the case of `NS(=O)(=O)c1ccc(N2N=C(c3ccc(O)cc3)CC2c2ccc([N+](=O)[O-])cc2)cc1` (stereo unspecified), the absorption maximum was 353 nm (in C1CCOC1); 353 nm (in C1COCCO1); 352 nm (in CC#N); 352 nm (in CC(C)O); 352 nm (in CCO); 352 nm (in CCOC(C)=O). Also, the absorption maximum runs as follows: (in CN(C)C=O) 355 nm; (in CO) 351 nm; (in CS(C)=O) 358 nm; (in O) 354 nm.

Turning to `Cc1cc2cc(C)c3c4ccccc4[nH]c3c2s1`, the absorption maximum (in ClCCl) amounted to 312 nm.

On to `CCC1(CC)c2cc(B(c3c(C)cc(C)cc3C)c3c(C)cc(C)cc3C)ccc2-c2ccc(N(c3ccccc3)c3ccccc3)cc21`, for which the absorption maximum runs as follows: (in C1CCOC1) 400 nm; (in CC#N) 394 nm; (in CC(C)=O) 398 nm; (in CCCCCC) 401 nm; (in CN(C)C=O) 396 nm; (in Cc1ccccc1) 403 nm. In addition, under “in ClC(Cl)Cl”, the absorption maximum came to 402 nm.

For the compound `N#Cc1ccc(/C=C2\C=C(c3ccccc3)NC2=O)cc1`, the absorption maximum (in C1COCCO1) is reported as 438 nm.

`CC1=c2ccccc2=[N+]2C1=Cc1c3ccccc3c(-c3[nH]c4ccccc4c3C)n1[B-]2(F)F` returned an absorption maximum (in ClCCl) of 611 nm.

`CN(C)c1ccc(-c2c(/C=C3/C=Cc4ccccc4N3C)c(=O)c2=O)cc1` returned an absorption maximum (in C1CCCCC1) of 358 nm, an absorption maximum (in Cc1ccccc1) of 362 nm and an absorption maximum (in ClCCl) of 509 nm.

Regarding `CCCC1=Cc2nc1ccc1[nH]c(cc1CCC)c1nc(ccc3[nH]c2cc3CCC)C(CCC)=C1`, the absorption maximum (in Cc1ccccc1) is given as 667 nm.

With `Clc1cc(Cl)c(B2c3ccccc3Nc3ccccc32)c(Cl)c1`, the absorption maximum (in ClCCl) was found to be 396 nm.

Take `COc1cccc(C2=c3c(c4ccc(C(C)(C)C)cc4c4cc(C(C)(C)C)ccc34)=[N+]3C2=C(c2ccccc2)c2c(-c4cccc(OC)c4)c4c5ccc(C(C)(C)C)cc5c5cc(C(C)(C)C)ccc5c4n2[B-]3(F)F)c1`: the absorption maximum runs as follows: (in C1CCCCC1) 680 nm; (in C1CCOC1) 677 nm; (in CC#N) 670 nm; (in Cc1ccccc1) 682 nm; (in ClCCl) 677 nm.

Where the note is “in CO”, `CCN(CC)c1ccc(C2=C3C(C)=CC(C)=[N+]3[B-](F)(F)n3c(C)cc(C)c32)cc1` yielded an absorption maximum of 500 nm.

The compound `O=C1c2ccc3c4ccc5c6c(ccc(c7ccc(c2c37)C(=O)N1c1ccc(Cl)cc1)c64)C(=O)N(c1ccc(Cl)cc1)C5=O` yielded an absorption maximum (in CN(C)C=O) of 525 nm.

`CCCCOC(=O)c1cc(Cl)c2c3c(Cl)cc4c5c(cc(Cl)c(c6c(Cl)cc(C(=O)OCCCC)c1c26)c53)C(=O)N(c1c(C(C)C)cccc1C(C)C)C4=O`: the absorption maximum (in Cc1ccccc1) is listed as 496 nm.

Regarding `CCCCCCCCCc1csc2cc(-c3cc(-c4cc5scc(CCCCCCCCC)c5s4)c4ccc5c(-c6cc7scc(CCCCCCCCC)c7s6)cc(-c6cc7scc(CCCCCCCCC)c7s6)c6ccc3c4c65)sc12`, the absorption maximum (in ClC(Cl)Cl) was 429 nm.

Turning to `CC(=O)OCOC(=O)CN(CC(=O)OCOC(C)=O)c1ccccc1OCCOc1cc(NC(=O)c2ccc3c(c2)C(=O)OC32c3cc(Cl)c(OC(C)=O)cc3Oc3cc(OC(C)=O)c(Cl)cc32)ccc1N(CC(=O)OCOC(C)=O)CC(=O)OCOC(C)=O`, the absorption maximum (in O) was 506 nm.

Consider `Fc1ccc2cc3cccc[n+]3cc2c1`, for which the absorption maximum (in O) was 400 nm.

Compound `CCCCN1c2ccc(/C=C/c3cc(=O)oc4cc(C)ccc34)cc2Sc2cc(/C=C/c3cc(=O)oc4cc(C)ccc34)ccc21` returned an absorption maximum (in ClC(Cl)Cl) of 441 nm.

Consider `COOCc1noc(-c2ccccc2)c1Cl`, for which the absorption maximum (in C1CCCCC1) was 277 nm.

The compound `CCCCNc1ccc2n1[B-](F)(F)[N+]1=CC(/C=C/C(=O)OC(C)(C)C)=CC1=C2c1c(C)cc(C)cc1C` had an absorption maximum (in ClCCl) of 499 nm.

As for `c1ccc2cc(-n3cnc4ccccc43)ccc2c1`, the absorption maximum was determined as 275 nm (in C1CCCCC1); 277 nm (in C1CCOC1); 278 nm (in CC#N); 277 nm (in CCO); 278 nm (in CCOC(C)=O); 276 nm (in CCOCC). Also, the absorption maximum came out at 275 nm (in CO), 275 nm (in Cc1ccccc1) and 276 nm (in ClC(Cl)Cl).

On to `CCOC(=O)CN1C(=O)C2=C(c3ccc(N4CCCCC4)cc3)N(CC(=O)OCC)C(=O)C2=C1c1ccc(N2CCCCC2)cc1`, for which the absorption maximum is, setting by setting: (in CC#N) 523 nm; (in CS(C)=O) 540 nm; (in Cc1ccccc1) 520 nm.

As for `Cc1cc(C)n2c1C=C1c3ccccc3C(c3c[nH]c4ccccc34)=[N+]1[B-]2(F)F`, the absorption maximum reads like this: (in C1CCOC1) 583 nm; (in CC#N) 575 nm; (in CCCCCC) 580 nm; (in CO) 579 nm; (in Cc1ccccc1) 587 nm; (in ClCCl) 581 nm.

Take `Cc1cc(C)c([B-]2(c3c(C)cc(C)cc3C)[O+]=P(c3ccccc3)(c3ccccc3)c3cc(-c4ccc(N(C)C)cc4)sc3-c3sc(-c4ccc(N(C)C)cc4)cc32)c(C)c1`: the absorption maximum (in C1CCOC1) came to 445 nm.

On to `c1ccc(C2=C3c4ccccc4C4=[N+]3[B-]3(Oc5ccccc54)Oc4ccccc4-c4c5ccccc5c2n43)cc1` (stereo unspecified), for which the absorption maximum (in ClCCl) turned out to be 711 nm.

Take `F[B-]1(F)Oc2ccccc2-c2n(-c3ccc(C(F)(F)F)cc3)c(-c3ccccc3)c(-c3ccccc3)[n+]21`: the absorption maximum (in C1CCOC1) is 327 nm.

In turn, `O=C(O)C1=C(C(=O)O)C2=C[C@H]3c4ccccc4[C@]2([Se]1)c1ccccc13` gave an absorption maximum (in ClCCl) of 421 nm.

`CCOC(=O)c1ccc(/C=C/C2=[N+]3C(=C(c4ccccc4)c4ccc(/C=C/c5ccc(C(=O)OCC)o5)n4[B-]3(F)F)C=C2)o1`: where the note is “in ClC(Cl)Cl”, the absorption maximum is 671 nm.

Turning to `CC(C)(C)c1ccc2c(c1)oc1nc3oc4ccc(-n5c6ccccc6c6ccccc65)cc4c3cc12`, the absorption maximum (in ClC(Cl)Cl) was determined as 350 nm.

As for `COC(=O)c1cc(=O)n(Cc2ccccc2)c2cc(-c3ccc(N(C)C)cc3)sc12`, the absorption maximum was 432 nm (in CC#N) and 436 nm (in ClCCl).

On to `CCOC(=O)c1c2c3c(ccc(Br)c3c3cc4ccccc4cc13)N(C)C2=O`, for which the absorption maximum (in CC#N) was found to be 404 nm.

In turn, `Cc1nc(-c2cc(C(F)(F)F)ccc2O)n2c1CCCC2` had an absorption maximum (in ClCCl) of 316 nm.

Under “in CC#N”, `O=c1ccc2ccc(C#Cc3ccccc3)cc2o1` came in with an absorption maximum of 300 nm.

In the case of `CCOC(=O)c1c2c3c(ccc(Cl)c3c3cc4ccccc4cc13)N(C)C2=O`, the absorption maximum (in CC#N) is 408 nm.

(Values after the Deep4Chem optical property database.)
